Measurements as given in PubChem BioAssay AID1159558 (GlaxoSmithKline (GSK), 2015).
Calls of active or inactive are those of the source.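 The calls were made as follows: active = IC50 against T. cruzi CYP51 below a set limit; inactive = the rest.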

Each compound was assayed against Sterol 14-alpha demethylase (Trypanosoma cruzi (strain CL Brener)) (UniProt Q7Z1V1) (assay: T. cruzi sterol 14-alpha demethylase inhibition – biochemical, recombinant enzyme, mechanism study for T. cruzi antiparasitic project, dose response (AID 1159558;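 also: enzyme in bacterial membranes with Anopheles gambiae CYP reductase and cytochrome b5 partners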)). Conditions: recombinant T. cruzi CYP51, BOMCC fluorescence.
Sequence of Sterol 14-alpha demethylase (Trypanosoma cruzi (strain CL Brener)) (Q7Z1V1 whole entry, looked up): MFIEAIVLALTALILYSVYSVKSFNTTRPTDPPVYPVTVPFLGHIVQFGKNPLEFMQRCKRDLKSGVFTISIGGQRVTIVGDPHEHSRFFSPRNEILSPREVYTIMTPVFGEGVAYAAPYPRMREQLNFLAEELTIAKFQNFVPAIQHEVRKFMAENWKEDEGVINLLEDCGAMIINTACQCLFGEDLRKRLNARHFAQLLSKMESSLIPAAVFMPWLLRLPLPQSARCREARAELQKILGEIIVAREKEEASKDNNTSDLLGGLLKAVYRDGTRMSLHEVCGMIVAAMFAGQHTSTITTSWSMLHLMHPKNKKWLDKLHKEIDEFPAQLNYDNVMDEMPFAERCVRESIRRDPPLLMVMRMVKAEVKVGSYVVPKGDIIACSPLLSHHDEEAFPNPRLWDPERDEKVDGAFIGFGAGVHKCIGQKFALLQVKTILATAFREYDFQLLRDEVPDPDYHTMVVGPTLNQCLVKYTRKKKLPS

IC50 | SMILES
> 100 µM (inactive) | Cc1[nH]n2c(=O)c3c(nc2c1-c1ccc(Cl)cc1)CCCC3
32 µM | CN1C(=O)c2ccccc2Sc2ccc(NC(=O)NCc3ccco3)cc21
16 µM | CS(=O)(=O)c1ccc(Nc2nccc(-c3cnn4ncccc34)n2)cc1
100 µM | O=C(NCCc1ccn(-c2ccccc2)n1)C1CCCCC1
> 100 µM (inactive) | CN(C(=O)Nc1ccc2c(c1)CCN(C1CCC1)CC2)c1ccc(C#N)cc1
3.2 µM | Cc1nc2c(-c3n[nH]c(-c4ccccc4N)n3)cccn2c1C
> 100 µM (inactive) | Cc1ccc(S(C)(=O)=O)cc1Nc1nccc(-c2sc(N)nc2-c2ccccc2)n1
25 µM | CCS(=O)(=O)Nc1ccc(C2=NN(C(=O)c3cccs3)C(c3ccccc3OC)C2)cc1 (stereo not given)
10 µM | COc1cnc2ccc(=O)n(CCN3CCC(NC(=O)c4ccc(Cl)cc4)CC3)c2c1
16 µM | COc1ccc(-c2cc(C)no2)cc1S(=O)(=O)Nc1ccc(C)c(C)c1
2.5 µM | CC1CCCN(S(=O)(=O)c2ccc(C(=O)Nc3nc(-c4ccccn4)cs3)cc2)C1 (stereo not given)
> 100 µM (inactive) | CC1CN(S(=O)(=O)c2ccc(NC(=O)c3cc(C4CC4)nc4c3cnn4C(C)C)cc2)CC(C)O1 (stereo not given)
5 µM | Cc1ccccc1NS(=O)(=O)c1ccc2[nH]cc(C(=O)NC3CCCC(C)C3C)c(=O)c2c1 (stereo not given)
20 µM | CS(=O)(=O)c1ccccc1C(=O)N(Cc1ccccc1)c1ccccc1
> 100 µM (inactive) | Cc1cc(-c2cccc3ccccc23)nc2nc(N)nc(N)c12
> 100 µM (inactive) | Cc1cccc(N2CCCN(Cc3c[nH]c4ccccc34)CC2)n1
63 µM | COc1ccc(C2CC(c3ccccc3Cl)=NN2C(=O)CNC(=O)C2CCCC2)cc1 (stereo not given)

IC50 | SMILES
> 100 µM (inactive) | c1ccc(-c2nc(NC3CCCCC3)cc(C3CC3)n2)nc1
> 100 µM (inactive) | CCN(C)Cc1ccc(N2CCC(NS(=O)(=O)c3ccc4c(c3)CCO4)CC2)nc1
79 µM | COc1ncc(-c2ccc3nccc(-c4ccncc4)c3c2)cc1NS(C)(=O)=O
> 100 µM (inactive) | CNc1cc(C)nc(C2CN(C(=O)c3n[nH]c4ccccc34)CCO2)c1 (stereo not given)
> 100 µM (inactive) | c1ccc(-c2nc(NC3CCCC3)c3ccccc3n2)nc1
> 100 µM (inactive) | O=C(COc1ncnc2cc([N+](=O)[O-])ccc12)NC(=O)NC1CCCCC1
20 µM | O=C(O)[C@H]1C[C@@H]1c1ccc(-c2ccc(CN(CCc3ccccn3)C(=O)C3CCC3)cc2)cc1
> 100 µM (inactive) | CCCn1c(NC(=O)Cc2ccc(Cl)cc2)nc2ccccc21
5 µM | COc1ccc(CNc2cc(C3CC3)nc(-c3nccn3C)n2)cc1
16 µM | O=c1cc(NCCCNC2CCOc3c(I)cc(Cl)cc32)[nH]c2ccccc12 (stereo not given)
> 100 µM (inactive) | O=C(Cc1ccccc1)Nc1ccccc1C(=O)Nc1nccs1
16 µM | Cn1cc(CN2CCN(c3ccc4c(c3)CCN(C(=O)[C@H]3C[C@@H]3c3ccccc3)CC4)CC2)cn1
50 µM | COCCn1cnc2cc(NC(=O)C3CCCCC3)cc(C(=O)N3CCc4sccc4C3)c21
16 µM | Cc1ccc(NC(C)C(=O)Nc2ccc(C#N)cc2)cc1S(=O)(=O)N1CCCCC1 (stereo not given)
10 µM | N#Cc1cnc(Nc2cccc(CCN3CCOCC3)c2)nc1Nc1ccccc1C(N)=O
13 µM | COc1ccc(C(=O)Nc2c(C)nn(COc3cccc(C(F)(F)F)c3)c2C)cc1

The remaining lines, values behind:

SMILES | IC50
CC(C)N(C(=O)CN1C(=O)C(N)C(=O)N(c2ccccc2)c2ccccc21)c1ccccc1 (stereo not given) | 0.32 µM
COc1cccc(CN(C)Cc2nc(N)c3c(C)c(C)sc3n2)c1 | > 100 µM (inactive)
O=C1CSC(c2cccnc2)N1c1ccc(Cl)cc1Cl (stereo not given) | 0.16 µM
CC1=NN(C(=O)CCn2cnc([N+](=O)[O-])n2)C(O)(C(F)(F)F)C1 (stereo not given) | > 100 µM (inactive)
Fc1ccc(Nc2nc(-c3ccccn3)cs2)cc1 | 16 µM
O=C(COc1nn(-c2ccccc2)c2ncccc12)NCc1ccccc1 | 6.3 µM
Cc1cccc(Nc2nc(-c3ccccn3)cs2)n1 | 20 µM
COc1ccc2ncc(F)c(NC(=O)C3(O)CCC(NCc4ccc5c(c4)OCCO5)CC3)c2n1 (stereo not given) | 63 µM
Cn1nccc1NC(=O)Cn1ccc(-c2ccncc2)n1 | 6.3 µM
O=C(CCc1ccc(-c2ccccc2)o1)N1CCN(c2ccc(O)cc2)CC1 | 2.5 µM
CC(c1ccc2c(c1)CCCC2)N(C)c1ncc2c(N)nc(N)nc2n1 (stereo not given) | 25 µM
C=CCn1nc([N+](=O)[O-])nc1Oc1ccc(Cl)cc1Cl | 20 µM
CCN(CC)c1nc(N(C)C)nc2c1CN(Cc1ccccc1)CC2 | 10 µM
CN1CCC(N(C)c2nccc(N3CCN(C(=O)c4cccc(-c5cccnc5)c4)CC3)n2)CC1 | 1.6 µM
COc1cc2c(cc1OC)[C@H]1[C@@H](C)c3ccc(OC)c(OC)c3CN1CC2 | 79 µM
Nc1nonc1-c1nc2cncc(C(=O)N3CC[C@H](N)C3)c2n1CC1CC1 | 13 µM
Cc1nn(C)c(Cl)c1CN(Cc1cccnc1)Cc1ccsc1 | 0.063 µM
COc1ccc(OC)c(NC(=O)c2ccc([N+](=O)[O-])o2)c1 | 10 µM
CN(Cc1nnnn1C1CCN(Cc2ccc(-n3ccnc3)cc2)CC1)c1ccc(F)cc1F | 0.13 µM
Cc1cc(Nc2cc(C3CC3)[nH]n2)nc(N2CCC[C@H]2C(N)=O)n1 | > 100 µM (inactive)
Cc1c(C(C)NC(=O)Nc2cccc(Cl)c2)sc2ncnn12 (stereo not given) | 0.13 µM

SMILES | IC50
CC(C)c1sc(Cl)nc1C(=O)NCCc1nc(C(=O)Nc2ccc3c(c2)OCO3)cs1 | 7.9 µM
CCN(Cc1nc2ccc(C(=O)N3CCN(c4ncccn4)CC3)cc2[nH]1)C1CCCc2cccnc21 (stereo not given) | 7.9 µM
COc1ccc(C2=NCC(CSc3nnc(-c4ccc5c(c4)OCO5)o3)S2)cc1 (stereo not given) | 10 µM
COCCn1c(-c2ccc3c(c2)OCO3)cnc1NCc1ccccc1OC | 5 µM
CC(C)Oc1ccc(C(=O)Nc2ccc(N3CCOCC3)c(Cl)c2)cc1 | > 100 µM (inactive)
Nc1ncnc2c1ncn2[C@@H]1O[C@H](CO)C[C@H]1O | > 100 µM (inactive)
O=C(c1cccc(Nc2ncc(-c3ccc4c(c3)OCO4)cn2)c1)N1CCSC1 | 16 µM
Oc1c(-c2n[nH]c(CCc3ccccc3)n2)ncc2cccnc12 | > 100 µM (inactive)
Cn1nccc1-c1cc(OC(CN)c2ccccc2)cnc1-c1ccco1 (stereo not given) | 0.063 µM
NCc1csc(Nc2cc(Oc3ccccc3)ncn2)n1 | 0.32 µM
COc1ccc2ncc(=O)n(CCN3CCOC(CNCc4ccc(C(F)(F)F)cc4F)C3)c2n1 (stereo not given) | 10 µM
Cn1nc(C(=O)N2CCc3ccccc32)c2c1CCS(=O)(=O)C2 | > 100 µM (inactive)
CN1CCCN(C(=O)c2ccc(N3CCCC3)cc2Cl)CC1 | > 100 µM (inactive)
Oc1c(-c2n[nH]c(Cc3ccc(F)cc3)n2)ncc2cccnc12 | > 100 µM (inactive)
CC(C)CC(=O)NC(c1cccs1)c1ccc2cccnc2c1O (stereo not given) | 50 µM
CC(CCc1ccccc1)NC(=O)CN(Cc1ccccn1)Cc1ccccn1 (stereo not given) | 63 µM
CCCc1nc2nc(N)nc(N)c2cc1CC | > 100 µM (inactive)
NC(=O)c1ccc(-c2cccc(OCCN3CCN(C4CCCCC4)CC3)c2)cc1 | 40 µM
N#Cc1cccc(CN2CCC(N(Cc3cccnc3)C(=O)c3cc(F)c(F)cc3F)CC2)c1 | 0.05 µM
O=[N+]([O-])c1cccc(Nc2cncc(-c3ccccc3CO)c2)c1 | 3.2 µM
COCc1cnc2c(c1SCc1c(F)cccc1Cl)c(=O)n(C)c(=O)n2C | 25 µM
